We go through ten compounds from patent US4427689A, “Clavulanic acid 9-deoxy-9-thia derivatives their preparation and use” (Beecham Group Limited, priority 1978, dated 1984).

Read-outs that look alike come from different tables or passages of the source.

The subject of one test is Staph. aureus Russell. Briefly: MIC of ampicillin alone or in presence of compound (synergistic activity, Demonstration 2), Staph. aureus Russell. It counts as cell-based. To be noted: Staphylococcus aureus. On the procedure: (§1) The MIC of ampicillin alone or in the presence of certain compounds of the invention was determined for certain Gram positive and Gram negative bacteria.

The subject of a further test is Kleb. aerogenes E70. Briefly: MIC of ampicillin alone or in presence of compound (synergistic activity, Demonstration 2), Kleb. aerogenes E70. Format: cell-based. To be noted: Klebsiella aerogenes. On the procedure:
as §1

The subject of the next test is E. coli JT39. Briefly: MIC of ampicillin alone or in presence of compound (synergistic activity, Demonstration 2), E. coli JT39. Format: cell-based. To be noted: Escherichia coli. Here is the method: as §1
In the next test the test system is E.coli E96. The test is described as follows: In-vivo effect, CD50 in mice infected intraperitoneally with E.coli E96. To be noted: Escherichia coli, E96, sc, subcutaneous at 1 and 5 hours post infection, no synergist, read-out: CD50 of amoxycillin alone. Here is the method: The CD50 in mice infected intraperitoneally with E.coli E96 was determined. Amoxycillin and the synergists were dosed subcutaneously at 1 and 5 hours post infection. The synergists were used at 2 mg/kg.

In a further test the test system is Staph. Russell. The test is described as follows: MIC of ampicillin alone or in presence of compound (synergistic activity, Demonstration 1), Staph. Russell. Format: cell-based. To be noted: Staphylococcus aureus. On the procedure: (§2) The minimum inhibitory concentration (MIC) of ampicillin alone or in the presence of certain compounds of the invention was determined for several strains of bacteria.

A further test relates to Klebsiella E70. The test is described as follows: MIC of ampicillin alone or in presence of compound (synergistic activity, Demonstration 1), Klebsiella E70. Format: cell-based, Kleb. aerogenes. The settings on record: E70, compound alone. On the procedure:
as §2

Another test deals with Proteus C889. The test is described as follows: MIC of ampicillin alone or in presence of compound (synergistic activity, Demonstration 1), Proteus C889. Format: cell-based. Here is the method: as §2
A further test deals with E.coli JT39. The test is described as follows: MIC of ampicillin alone or in presence of compound (synergistic activity, Demonstration 1), E.coli JT39. To be noted: Escherichia coli. Format: cell-based. On the procedure:
as §2

Where [1] appears, read: compound alone, read-out: MIC, compound alone.
Setting [2] is: compound alone, E. coli JT39, read-out: MIC, compound alone.
The mark [3] stands for this setting: compound conc. 0 μg/ml, read-out: MIC Ampicillin (alone).
[4] abbreviates: ampicillin alone, read-out: MIC of ampicillin alone.

Turning to `O=C(O)[C@H]1/C(=C/CSCN2CCCC2=O)O[C@@H]2CC(=O)N21` [Example 8, Sodium 9-(2-oxopyrrolidin-1-ylmethylthio)-9-deoxyclavulate], the MIC – broadly, the lowest concentration that inhibits growth of the organism – with Staph. aureus Russell (setting [1]) turned out to be 62.5 µg/mL; in the test with Kleb. aerogenes E70 (setting [1]), 250 µg/mL; with E. coli JT39 (setting [1]), 250 µg/mL.
In the case of `CC(=O)NCSC/C=C1\O[C@@H]2CC(=O)N2[C@H]1C(=O)O` [Example 20, Sodium 9-(acetamidomethylthio)-9-deoxyclavulanate], the results for the MIC with Staph. aureus Russell (setting [1]), in the test on Kleb. aerogenes E70 (setting [1]) and in the test on E. coli JT39 (setting [1]) were 4 µg/mL, 62.5 µg/mL and 62.5 µg/mL, respectively.
For the compound `CC1(C)S[C@@H]2[C@H](NC(=O)[C@H](N)c3ccc(O)cc3)C(=O)N2[C@H]1C(=O)O` [Amoxycillin, amoxycillin], in the test on E.coli E96, the ED50 was more than 1000 mg/kg.
Regarding `O=C1CC(SC/C=C2\O[C@@H]3CC(=O)N3[C@H]2C(=O)O)N1` (some centres unmarked) [Example 2, Sodium 9-deoxy-9-thio-(azetidin-2'-on-4'-yl) clavulanate], the minimal inhibitory concentration (MIC) is 31.2 µg/mL in the test with Staph. Russell (setting [1]); 15 µg/mL in the test with Klebsiella E70; 15 µg/mL in the test on Proteus C889 (setting [1]); 31.2 µg/mL in the test with E.coli JT39 (setting [2]); 31.2 µg/mL in the test with Staph. aureus Russell (setting [1]); 16 µg/mL in the test with Kleb. aerogenes E70 (setting [1]).
On to `CC1(C)S[C@@H]2[C@H](NC(=O)[C@H](N)c3ccccc3)C(=O)N2[C@H]1C(=O)O` [Ampicillin, ampicillin, reference compound], for which the MIC with Staph. Russell (setting [3]) was 500 µg/mL; with Proteus C889 (setting [3]), more than 2000 µg/mL; with E.coli JT39 (compound conc. 0 μg/ml, E.coli JT39, read-out: MIC Ampicillin (alone)), 2000 µg/mL; with Staph. aureus Russell (setting [4]), 125 to 500 µg/mL; in the test on Kleb. aerogenes E70 (setting [4]), 500 to 2000 µg/mL; with E. coli JT39 (setting [4]) it was not below 2000 µg/mL. Moreover, the “MIC Ampicillin (alone)” value in the test with Proteus C889 (compound conc. 0 μg/ml) came out at 1000 µg/mL.
For `O=C(O)[C@H]1/C(=C/CS(=O)(=O)CN2CCCC2=O)O[C@@H]2CC(=O)N21` [Example 10, Sodium 9-(2-oxopyrrolidin-1-ylmethylsulphonyl)-9-deoxyclavulanate], the MIC in the test with Staph. aureus Russell (setting [1]) turned out to be 31.2 µg/mL; with Kleb. aerogenes E70 (setting [1]), 62.5 µg/mL; in the test on E. coli JT39 (setting [1]), 62.5 µg/mL.
On to `CC(NC=O)SC/C=C1\O[C@@H]2CC(=O)N2[C@H]1C(=O)O` (some centres unmarked) [Example 13, Sodium 9-(1-formamidoethylthio)-9-deoxyclavulanate], for which the MIC amounted to 16 µg/mL in the test with Staph. aureus Russell (setting [1]), 62.5 µg/mL in the test on Kleb. aerogenes E70 (setting [1]) and 125 µg/mL in the test on E. coli JT39 (setting [1]).
Turning to `CC(=O)NC[S+]([O-])C/C=C1\O[C@@H]2CC(=O)N2[C@H]1C(=O)O` (some centres unmarked) [Example 21, Sodium 9-(acetamidomethylsulphinyl)-9-deoxyclavulanate], the MIC in the test with Staph. aureus Russell (setting [1]) was found to be 125 µg/mL; in the test with Kleb. aerogenes E70 (setting [1]) it was 125 µg/mL; in the test with E. coli JT39 (setting [1]), 62.5 µg/mL.
As for `O=C(NCSC/C=C1\O[C@@H]2CC(=O)N2[C@H]1C(=O)O)c1ccccc1` [Example 6, Sodium 9-deoxy-9-thio (N-benzoylaminomethyl) clavulanate], the MIC with Staph. Russell (setting [1]) worked out at 16 µg/mL; in the test with Klebsiella E70, 500 µg/mL; with Proteus C889 (setting [1]), 125 µg/mL; in the test on E.coli JT39 (setting [2]) it was 250 µg/mL; with Staph. aureus Russell (setting [1]), 16 µg/mL; with Kleb. aerogenes E70 (setting [1]), 500 µg/mL.
As to `CC(=O)NCS(=O)(=O)C/C=C1\O[C@@H]2CC(=O)N2[C@H]1C(=O)O` [Example 22, Sodium 9-(acetamidomethylsuphonyl)-9-deoxyclavulanate], the MIC turned out to be 62.5 µg/mL in the test with Staph. aureus Russell (setting [1]), 62.5 µg/mL in the test on Kleb. aerogenes E70 (setting [1]) and 31.2 µg/mL in the test with E. coli JT39 (setting [1]).
